Among the test systems are SR; NCI-H23; SW-620; NCI-H522; EKVX; HOP-92; SN12C; SK-MEL-28; HOP-62; HT-29; SK-OV-3; HL-60; OVCAR-8; NCI-H460; LOX IMVI; HCT-15; U-251; KM12.
Holding throughout (assay): NCI tumour cell line growth inhibition, 48 h

The record followed here is ChEMBL document CHEMBL1201862, “PubChem BioAssay data set” (2004).

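All cell lines were grown in 96-well plates and treated with compound for 48 hours. The concentration for 50% growth inhibition is given as GI50.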 The source made the active and inactive calls. Rule as the data show it: active = GI50 up to about 1.1 µM and inactive = higher.

`C=C1C(=O)OC2/C=C(\C)C(OC(C)=O)C3OC3C(C)(O)CC(OC(=O)/C(C)=C/C)C12` (configuration not stated): the GI50 was 2.96 µM (inactive) in the assay with SR; 12.8 µM (inactive) in the assay on NCI-H23; < 0.01 µM (active) in the assay with SW-620; 1.62 µM (inactive) in the assay with NCI-H522; 18.3 µM (inactive) with EKVX; 5.52 µM (inactive) with HOP-92. The GI50 was 20 µM (inactive) in the assay on SN12C; 4.95 µM (inactive) in the assay on SK-MEL-28; 19.1 µM (inactive) with HOP-62; 14.9 µM (inactive) in the assay on HT-29; 20.1 µM (inactive) in the assay on SK-OV-3; 2.51 µM (inactive) with HL-60. Also, the GI50 with OVCAR-8 is 9.93 µM (inactive); with NCI-H460, 15.7 µM (inactive); with LOX IMVI, 15.3 µM (inactive); in the assay on HCT-15 it was 12.8 µM; in the assay on U-251, 12.1 µM (inactive); in the assay on KM12 it was 14.7 µM (inactive).

As to `CCCOP1(=O)C=C(C)C(Cl)=C(C)C1` (configuration not stated), the GI50 was 17.9 µM (inactive) in the assay with SR; 16.9 µM (inactive) in the assay on NCI-H23; 17.1 µM (inactive) in the assay on SW-620; 15 µM (inactive) in the assay with NCI-H522; 74.3 µM (inactive) in the assay on EKVX; 18.4 µM (inactive) in the assay on HOP-92. Also, the GI50 was 20.2 µM (inactive) in the assay on SN12C; 18.3 µM (inactive) in the assay with SK-MEL-28; 42.4 µM (inactive) in the assay on HOP-62; 22.1 µM (inactive) in the assay with HT-29; 38.3 µM (inactive) with SK-OV-3; 22.3 µM (inactive) in the assay with HL-60. The GI50 was 27 µM (inactive) in the assay with OVCAR-8; 31.2 µM (inactive) with NCI-H460; 13.3 µM (inactive) in the assay on LOX IMVI; 20 µM with HCT-15; 23.2 µM (inactive) in the assay on U-251; 19.1 µM (inactive) in the assay with KM12.

Consider `COc1cc2c(cc1O)C1C(O)C(O)C=C3CCN(C2)C31` (configuration not stated), for which the GI50 in the assay with SR is 2.08 µM (inactive); with NCI-H23, 2.13 µM (inactive); with SW-620, 2.49 µM (inactive); in the assay on NCI-H522 it was 1.8 µM (inactive); with EKVX, 3.84 µM (inactive); in the assay on HOP-92, 1.16 µM (inactive). Besides, the GI50 in the assay with SN12C was 2.84 µM (inactive); with SK-MEL-28, 2.76 µM (inactive); with HOP-62, 2.92 µM (inactive); in the assay on HT-29, 3.17 µM (inactive); with SK-OV-3, 4.11 µM (inactive); in the assay with HL-60, 2.66 µM (inactive). For the same compound, the GI50 in the assay with OVCAR-8 was 2.05 µM (inactive); with NCI-H460, 1.83 µM (inactive); with LOX IMVI, 0.76 µM (active); with HCT-15, 3.61 µM; in the assay with U-251, 2.98 µM (inactive); in the assay on KM12 it was 2.05 µM (inactive).

Regarding `Cc1c2n(c(=O)[nH]c1=O)C1OC(CO)C(N=[N+]=[N-])C1O2` (configuration not stated), the GI50 is > 100 µM (inactive) in the assay on SR; > 100 µM (inactive) with NCI-H23; > 100 µM (inactive) in the assay with SW-620; 90.6 µM (inactive) with NCI-H522; 55.3 µM (inactive) with EKVX; 49.5 µM (inactive) in the assay with HOP-92. The GI50 in the assay on SN12C, in the assay with SK-MEL-28, in the assay with HOP-62, in the assay with HT-29, with SK-OV-3 and in the assay on HL-60 was > 100 µM (inactive) throughout. Further, the GI50 in the assay on OVCAR-8 is > 100 µM (inactive); in the assay on NCI-H460, > 100 µM (inactive); in the assay with LOX IMVI, > 100 µM (inactive); in the assay with HCT-15 it was more than 100 µM; in the assay with U-251 it was > 100 µM (inactive); with KM12 it was > 100 µM (inactive).
